# Measurements as given in ChEMBL document CHEMBL5725665, “Pyrazolopyridines and pyrazolopyrimidines” (2018).
# What was measured:
# [1] = target: Tyrosine-protein kinase JAK2 (Homo sapiens, UniProt O60674); assay: (§1) JAK Caliper Enzyme Assay at 1 mM ATP: Test article was solubilized in dimethyl sulfoxide (DMSO) to a stock concentration of 30 mM. An 11-point half log dilution series was created in DMSO with a top concentration of 600 μM. […] The compound plates were diluted 1 to 60 resulting in a top final assay compound concentration of 10 μM and a 2% DMSO concentration.Test article and assay controls were added to a 384-well plate. Reaction mixtures contained 20 mM HEPES, pH 7.4, 10 mM magnesium chloride, 0.01% bovine serum albumin (BSA), 0.0005% Tween 20, 1 mM ATP and 1 μM peptide substrate. […] Enzyme concentrations and incubation times were optimized for each new enzyme preps and were modified slightly over time to ensure 20%-30% phosphorylation. The assays were stopped with a final concentration of 10 mM EDTA, 0.1% Coating Reagent and 100 mM HEPES, pH=7.4. The assay plates were placed on a Caliper Life Science Lab Chip 3000 (LC3000) instrument, and each well was sampled using appropriate separation conditions to measure the unphosphorylated and phosphorylated peptide.
# [2] = target: T1, Tyrosine-protein kinase JAK3 (Homo sapiens, UniProt P52333); assay: as §1, with “substrate. The JAK1 and TYK2 assays contained 1 μM of the IRStide peptide (5FAM-[…]) and the JAK2 and JAK3 assays contained 1 μM of the JAKtide peptide (FITC-[…]).” for “substrate.”
# T1 sequence (P52333 whole entry): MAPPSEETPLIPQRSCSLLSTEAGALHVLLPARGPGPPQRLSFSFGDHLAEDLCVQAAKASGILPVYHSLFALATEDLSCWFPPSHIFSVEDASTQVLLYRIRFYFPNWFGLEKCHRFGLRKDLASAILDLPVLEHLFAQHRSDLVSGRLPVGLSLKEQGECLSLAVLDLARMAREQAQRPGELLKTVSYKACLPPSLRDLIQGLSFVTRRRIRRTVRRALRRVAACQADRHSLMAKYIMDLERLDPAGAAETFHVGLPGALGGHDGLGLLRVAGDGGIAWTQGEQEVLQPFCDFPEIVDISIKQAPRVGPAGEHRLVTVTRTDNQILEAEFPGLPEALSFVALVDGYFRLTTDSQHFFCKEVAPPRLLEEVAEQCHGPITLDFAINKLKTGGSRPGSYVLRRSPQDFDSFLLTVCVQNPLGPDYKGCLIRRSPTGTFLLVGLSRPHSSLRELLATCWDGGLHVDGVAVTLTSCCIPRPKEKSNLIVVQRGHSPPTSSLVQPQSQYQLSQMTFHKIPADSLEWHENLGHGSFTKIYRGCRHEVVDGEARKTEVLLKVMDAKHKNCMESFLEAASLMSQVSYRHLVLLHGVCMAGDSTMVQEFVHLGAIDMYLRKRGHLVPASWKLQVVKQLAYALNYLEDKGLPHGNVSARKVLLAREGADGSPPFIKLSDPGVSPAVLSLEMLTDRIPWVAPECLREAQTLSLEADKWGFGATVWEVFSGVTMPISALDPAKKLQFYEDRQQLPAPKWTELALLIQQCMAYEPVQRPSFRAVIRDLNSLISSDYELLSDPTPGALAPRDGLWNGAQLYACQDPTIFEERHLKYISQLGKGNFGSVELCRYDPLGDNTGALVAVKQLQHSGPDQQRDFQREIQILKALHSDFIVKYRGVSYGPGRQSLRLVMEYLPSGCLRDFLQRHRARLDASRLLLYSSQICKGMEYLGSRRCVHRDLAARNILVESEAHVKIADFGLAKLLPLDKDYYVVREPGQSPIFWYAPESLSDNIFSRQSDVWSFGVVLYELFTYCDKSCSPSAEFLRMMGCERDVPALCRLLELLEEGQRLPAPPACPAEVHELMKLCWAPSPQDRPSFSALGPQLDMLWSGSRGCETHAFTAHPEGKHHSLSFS
# [3] = target: Tyrosine-protein kinase JAK1 (Homo sapiens, UniProt P23458); assay: as above
# [4] = target: Non-receptor tyrosine-protein kinase TYK2 (Homo sapiens, UniProt P29597); assay: as above
# Sequence of Non-receptor tyrosine-protein kinase TYK2 (P29597 whole entry): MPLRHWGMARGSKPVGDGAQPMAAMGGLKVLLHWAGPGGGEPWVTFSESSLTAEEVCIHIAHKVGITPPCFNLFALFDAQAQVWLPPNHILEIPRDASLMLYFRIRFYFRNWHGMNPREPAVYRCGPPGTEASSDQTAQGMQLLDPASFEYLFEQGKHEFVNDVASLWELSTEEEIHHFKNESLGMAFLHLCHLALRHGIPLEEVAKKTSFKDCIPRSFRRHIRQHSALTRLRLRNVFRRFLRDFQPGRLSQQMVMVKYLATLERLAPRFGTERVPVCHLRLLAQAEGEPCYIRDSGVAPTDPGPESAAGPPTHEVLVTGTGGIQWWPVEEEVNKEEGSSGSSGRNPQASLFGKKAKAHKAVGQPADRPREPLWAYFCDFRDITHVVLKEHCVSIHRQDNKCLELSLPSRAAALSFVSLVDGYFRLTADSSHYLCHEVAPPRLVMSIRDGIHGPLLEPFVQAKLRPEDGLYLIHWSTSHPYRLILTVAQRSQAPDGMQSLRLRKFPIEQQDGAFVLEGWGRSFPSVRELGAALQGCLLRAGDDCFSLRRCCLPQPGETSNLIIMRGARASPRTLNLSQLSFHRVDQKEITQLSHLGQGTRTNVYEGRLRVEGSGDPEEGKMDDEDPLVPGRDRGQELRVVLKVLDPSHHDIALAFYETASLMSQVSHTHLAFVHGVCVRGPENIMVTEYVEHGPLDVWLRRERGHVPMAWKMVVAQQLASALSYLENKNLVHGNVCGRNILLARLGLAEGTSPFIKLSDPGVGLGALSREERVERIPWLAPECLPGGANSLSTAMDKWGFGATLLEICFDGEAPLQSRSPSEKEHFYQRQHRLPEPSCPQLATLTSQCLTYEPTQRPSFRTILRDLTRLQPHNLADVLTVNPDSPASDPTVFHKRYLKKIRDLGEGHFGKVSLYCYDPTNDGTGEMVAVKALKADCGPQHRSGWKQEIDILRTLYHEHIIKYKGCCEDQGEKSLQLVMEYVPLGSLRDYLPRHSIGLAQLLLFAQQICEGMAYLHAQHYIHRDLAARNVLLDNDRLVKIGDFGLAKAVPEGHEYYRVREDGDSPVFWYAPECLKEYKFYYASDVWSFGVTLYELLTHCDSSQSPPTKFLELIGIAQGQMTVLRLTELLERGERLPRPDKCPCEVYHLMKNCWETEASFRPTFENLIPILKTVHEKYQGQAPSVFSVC
# Sequence of Tyrosine-protein kinase JAK1 (P23458 whole entry): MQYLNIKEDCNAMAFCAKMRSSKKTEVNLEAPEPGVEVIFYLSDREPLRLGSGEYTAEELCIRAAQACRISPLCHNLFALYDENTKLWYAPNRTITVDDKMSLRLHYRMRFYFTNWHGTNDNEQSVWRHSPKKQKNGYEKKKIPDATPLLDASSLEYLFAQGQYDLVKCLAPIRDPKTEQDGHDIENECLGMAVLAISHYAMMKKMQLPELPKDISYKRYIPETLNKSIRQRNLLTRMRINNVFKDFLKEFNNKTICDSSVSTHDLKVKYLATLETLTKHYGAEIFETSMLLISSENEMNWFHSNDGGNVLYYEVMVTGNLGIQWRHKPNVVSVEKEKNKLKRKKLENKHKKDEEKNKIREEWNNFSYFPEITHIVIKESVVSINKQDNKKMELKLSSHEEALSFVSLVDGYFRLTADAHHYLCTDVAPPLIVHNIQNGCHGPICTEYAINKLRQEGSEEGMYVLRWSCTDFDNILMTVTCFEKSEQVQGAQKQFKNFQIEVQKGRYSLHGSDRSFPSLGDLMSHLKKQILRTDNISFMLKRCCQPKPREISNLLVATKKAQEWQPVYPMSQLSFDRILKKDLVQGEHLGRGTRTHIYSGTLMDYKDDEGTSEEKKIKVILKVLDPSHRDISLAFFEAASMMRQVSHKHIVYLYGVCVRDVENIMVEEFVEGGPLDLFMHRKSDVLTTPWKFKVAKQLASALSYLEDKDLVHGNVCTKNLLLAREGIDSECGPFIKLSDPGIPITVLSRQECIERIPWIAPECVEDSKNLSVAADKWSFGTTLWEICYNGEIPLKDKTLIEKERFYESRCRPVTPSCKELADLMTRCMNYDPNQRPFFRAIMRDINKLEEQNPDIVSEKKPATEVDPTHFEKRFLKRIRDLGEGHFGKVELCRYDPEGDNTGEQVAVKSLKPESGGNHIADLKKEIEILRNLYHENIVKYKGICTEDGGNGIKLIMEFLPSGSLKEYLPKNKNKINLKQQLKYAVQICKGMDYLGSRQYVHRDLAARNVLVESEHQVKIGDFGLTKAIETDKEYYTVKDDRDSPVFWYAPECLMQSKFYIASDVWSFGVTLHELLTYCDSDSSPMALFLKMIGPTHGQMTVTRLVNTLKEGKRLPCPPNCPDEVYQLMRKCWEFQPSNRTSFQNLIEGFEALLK
# Sequence of Tyrosine-protein kinase JAK2 (O60674 whole entry): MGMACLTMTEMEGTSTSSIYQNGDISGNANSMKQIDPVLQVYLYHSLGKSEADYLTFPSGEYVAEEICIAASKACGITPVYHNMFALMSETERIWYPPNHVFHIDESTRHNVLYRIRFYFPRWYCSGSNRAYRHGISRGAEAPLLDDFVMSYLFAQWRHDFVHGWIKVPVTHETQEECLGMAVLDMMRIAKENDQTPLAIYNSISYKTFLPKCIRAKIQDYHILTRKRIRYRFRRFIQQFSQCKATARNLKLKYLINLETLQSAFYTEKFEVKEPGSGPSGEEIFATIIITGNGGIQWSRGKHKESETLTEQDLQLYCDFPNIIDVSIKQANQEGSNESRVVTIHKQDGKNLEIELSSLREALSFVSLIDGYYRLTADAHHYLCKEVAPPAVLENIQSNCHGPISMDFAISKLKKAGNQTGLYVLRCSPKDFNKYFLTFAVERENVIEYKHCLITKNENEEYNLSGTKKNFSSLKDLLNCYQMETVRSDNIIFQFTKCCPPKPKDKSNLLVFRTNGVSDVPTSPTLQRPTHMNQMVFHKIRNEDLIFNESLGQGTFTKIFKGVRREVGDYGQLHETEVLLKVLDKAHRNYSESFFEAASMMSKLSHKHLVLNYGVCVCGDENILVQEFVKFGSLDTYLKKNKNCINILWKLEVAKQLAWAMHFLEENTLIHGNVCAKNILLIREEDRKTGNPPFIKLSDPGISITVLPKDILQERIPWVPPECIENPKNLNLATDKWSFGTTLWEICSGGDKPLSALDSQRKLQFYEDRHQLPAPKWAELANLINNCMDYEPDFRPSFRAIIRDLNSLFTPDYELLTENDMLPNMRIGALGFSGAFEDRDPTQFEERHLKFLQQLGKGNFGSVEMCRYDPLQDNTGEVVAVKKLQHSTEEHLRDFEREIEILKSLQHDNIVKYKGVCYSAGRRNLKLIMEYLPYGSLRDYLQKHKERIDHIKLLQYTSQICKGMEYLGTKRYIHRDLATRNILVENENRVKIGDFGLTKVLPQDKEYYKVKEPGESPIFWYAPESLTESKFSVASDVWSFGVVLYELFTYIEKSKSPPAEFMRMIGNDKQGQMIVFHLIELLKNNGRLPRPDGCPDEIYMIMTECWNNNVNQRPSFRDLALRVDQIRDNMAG
Structure (SMILES),IC50 [1],IC50 [2],IC50 [3],IC50 [4]
Cc1nnc(-c2n[nH]c3cc(-c4cc(F)c(O)cc4CC(F)(F)F)nc(NCc4ccccc4N(C)S(C)(=O)=O)c23)[nH]1,129 nM,429 nM,27.5 nM,150 nM
CCc1cc(O)ccc1-c1cc2[nH]ncc2c(N2CC(Oc3ccccc3)C2)n1,82.9 nM,67.5 nM,12.1 nM,5170 nM
CN(c1ccc(O)cc1CNc1nc(-c2cc(F)c(O)cc2CC(F)(F)F)nc2[nH]nc(C(N)=O)c12)S(C)(=O)=O,12.7 nM,38 nM,3.2 nM,373 nM
CN(c1ccc(O)cc1CNc1nc(-c2cc(F)c(O)cc2CC(F)(F)F)nc2[nH]nc(-c3nc4c([nH]3)CCNC4)c12)S(C)(=O)=O,35.3 nM,111 nM,5.6 nM,68.6 nM
CS(=O)(=O)N(CCO)c1ccccc1CNc1nc(-c2cc(F)c(O)cc2CC(F)(F)F)cc2[nH]nc(C(N)=O)c12,14.7 nM,53.5 nM,2.9 nM,48.8 nM
CN(c1ccccc1CNc1nc(-c2cc(F)c(O)cc2CC(F)(F)F)nc2[nH]nc(-c3nnc(C4CCN(C(=O)CN5CCCC5)CC4)[nH]3)c12)S(C)(=O)=O,54.3 nM,158 nM,16.8 nM,2260 nM
CCc1cc(O)ccc1-c1cc2[nH]ncc2c(NCCc2ccc(-c3ccccc3)cc2)n1,183 nM,157 nM,87.6 nM,4230 nM
